The target of this experiment is T1, stearoyl-CoA desaturase (SCD) (Rattus norvegicus, UniProt P07308).
T1 construct: The microsomes were quickly thawed and added to assay buffer so that a concentration of 0.4 mg/ml was achieved; from tissue
T1 sequence (P07308 1-358): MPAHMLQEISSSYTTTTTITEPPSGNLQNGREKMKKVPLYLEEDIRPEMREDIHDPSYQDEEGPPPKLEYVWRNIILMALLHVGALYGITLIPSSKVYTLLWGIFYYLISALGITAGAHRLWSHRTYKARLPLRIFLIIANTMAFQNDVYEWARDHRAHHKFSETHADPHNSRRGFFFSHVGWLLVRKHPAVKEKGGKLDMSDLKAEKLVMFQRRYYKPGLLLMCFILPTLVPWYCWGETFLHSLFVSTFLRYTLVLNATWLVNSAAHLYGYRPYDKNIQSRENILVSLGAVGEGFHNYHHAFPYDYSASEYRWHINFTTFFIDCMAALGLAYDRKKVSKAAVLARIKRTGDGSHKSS
Kind of experiment: SCD assay with rat liver microsomes ([3H]stearoyl CoA, adapted from Talamo and Bloch). It is filed as biochemical. The settings on record: Table 1; rat liver microsomes 0.2 mg/ml assay final, [3H]stearoyl CoA substrate, 30 min preincubation, 45 min reaction, room temperature. An excerpt: Male Spraque Dawley Rats were placed on regimented fasting protocol for one week to stimulate SCD enzymatic activity. 48-hour periods were alternated between feeding and fasting to induce and down-regulate SCD activity with SCD activity being induced via carbohydrate rich diet prior to liver perfusion and collection.
The rats were anesthetized with Isoflurane inhalation anesthetic, the liver perfused with cold phosphate buffered saline (PBS), weighed, and chilled in cold homogenization buffer (250 mM sucrose, 10 mM Tris, 1 mM EDTA, pH 7.6.
The livers were finely minced and placed in homogenization tube. 40 mL of homogenization buffer was added to the homogenization tube and the liver homogenized and centrifuged in a pre-chilled […] for 10 min at 4° C.
Following centrifugation, the supernatant was collected and the pellet removed and discarded. The supernatant was centrifuge at 10,000 G for 35 minutes. Following centrifugation, the supernatant was collect and the pellet discarded. The supernatant was then centrifuged in a pre-chilled 45-Ti rotor at 130,000 G (41,000 RPM) for 90 minutes at 4° C.
The supernatant was then aspirated off and the collected microsomal pellet washed in 25 mL of Glycerol PBS (1×PBS 7.4, 20% Glycerol) and resuspended in 4-5 volumes of Glycerol PBS.
The protein concentration of the microsomal preparation was determined by BCA assay (Pierce) and the microsomes were aliquoted and stored at −80° C.
Biobeads were ground to a smaller size in a mortar and pestle and resuspended in 3.6% TCA. The beads were then filtered through […] mesh.
SCD was determined in the desaturase assay buffer. This assay buffer contained 0.1 M Tris buffer, pH 7.2, 2 mM NADH, 4.8 mM ATP, 0.5 mM CoA, 4.8 mM MgCl2, and 0.1% BSA.
1 μl of each compound of Formula I was added to an assay plate by a low volume (0.5-10 μL) multichannel pipette. A DMSO control was also prepared. The microsomes were quickly thawed and added to assay buffer so that a concentration of 0.4 mg/ml was achieved (0.2 mg/ml assay final). 50 μl of the microsome suspension in assay buffer was then added into each well in the compound assay plate, the plate was covered, and the microsomes preincubated with the compounds for 30 minutes on the orbital shaker, 50-75 rpm, at room temperature.
The reaction mixtures were then incubated for 45 minutes on the orbital shaker at 50-75 rpm at room temperature.
The reaction was terminated by the addition of 10 μl of 21% trichloroacetic acid (TCA) to the reaction mixture followed incubation on the orbital shaker for 30 minutes at 50-75 rpm at room temperature followed by centrifugation for 5 minutes at 3700 rpm.
50 μl of a 6% Bio-Bead suspension in H2O was added to the reaction mixture and the assay plate was sealed. The Bio-Bead mixture was incubated on the orbital shaker for 1 hour, 100-150 rpm at room temperature, and then the mixture was centrifuged at 2000 g for 5 minutes to pellet the Bio-Beads.
25 μl of the supernatant was harvested from each well and transferred to a detection plate. 100 μl of OptiPhase SuperMix scinitillation cocktail (containing sufficient NaOH to neutralize the TCA) was added and the solutions mixed by vigorous shaking (300-400 rpm) for 5 minutes at room temperature.
In turn, `COc1ccc(Cn2cnc3ccc(NC(=O)COC(C)=O)cc3c2=O)cc1` [C, (N-{3-[(4-methoxyphenyl)methyl]-4-oxo-3-hydroquinazolin-6-yl}carbamoyl)methyl acetate] yielded an IC50 of 3500 nM. This lies in the single-digit micromolar range.

`COc1ccc(Cn2cnc3ccc(NC(=O)CO)cc3c2=O)cc1` [CI, 2-hydroxy-N-{3-[(4-methoxyphenyl)methyl]-4-oxo(3-hydroquinazolin-6-yl)}acetamide]: 8220 nM corresponded to half-maximal inhibition (IC50). For `CC(=O)OCC(=O)Nc1ccc2c(=O)n(Cc3ccc(F)c(F)c3)cnc2c1` [CII, (N-{3-[(3,4-difluorophenyl)methyl]-4-oxo-3-hydroquinazolin-7-yl}carbamoyl)methyl acetate] the value was 7640 nM; for `O=C(CO)Nc1ccc2c(=O)n(Cc3ccc(F)c(F)c3)cnc2c1` [CIII, N-{3-[(3,4-difluorophenyl)methyl]-4-oxo(3-hydroquinazolin-7-yl)}-2-hydroxyacetamide], 4390 nM; for `O=C(Nc1ccc2ncn(Cc3ccc(Cl)c(Cl)c3)c(=O)c2c1)OCc1ccccc1` [I, N-{3-[(3,4-dichlorophenyl)methyl]-4-oxo(3-hydroquinazolin-6-yl)}(phenylmethoxy)carboxamide], 160 nM. `O=C(CCc1ccccc1)Nc1ccc2ncn(Cc3ccc(Cl)c(Cl)c3)c(=O)c2c1` [II, N-{3-[(3,4-dichlorophenyl)methyl]-4-oxo(3-hydroquinazolin-6-yl)}-3-phenylpropanamide] displayed a concentration for half-maximal inhibition (IC50) of 2410 nM. The figure for `CCCCCC(=O)Nc1ccc2ncn(Cc3ccc(Cl)c(Cl)c3)c(=O)c2c1` [III, N-{3-[(3,4-dichlorophenyl)methyl]-4-oxo-3-hydroquinazolin-6-yl}hexanamide] is 5310 nM; for `CCCCCNC(=O)Nc1ccc2ncn(Cc3ccc(Cl)c(Cl)c3)c(=O)c2c1` [IV, N-{3-[(3,4-dichlorophenyl)methyl]-4-oxo(3-hydroquinazolin-6-yl)}(pentylamino)carboxamide] it is 3590 nM; for `CC(C)OC(=O)Nc1ccc2ncn(Cc3ccc(Cl)c(Cl)c3)c(=O)c2c1` [IX, N-{3-[(3,4-dichlorophenyl)methyl]-4-oxo(3-hydroquinazolin-6-yl)}(methylethoxy)carboxamide] it is 14000 nM. For `COc1ccccc1OCC(=O)Nc1ccc2c(=O)n(Cc3ccc(Cl)c(Cl)c3)cnc2c1` [L, N-{3-[(3,4-dichlorophenyl)methyl]-4-oxo(3-hydroquinazolin-7-yl)}-2-(2-methoxyphenoxy)acetamide] the value was 1440 nM. For `O=C(COc1cccnc1)Nc1ccc2c(=O)n(Cc3ccc(Cl)c(Cl)c3)cnc2c1` [LI, N-{3-[(3,4-dichlorophenyl)methyl]-4-oxo(3-hydroquinazolin-7-yl)}-2-(3-pyridyloxy)acetamide] the value was 1450 nM. For the compound `O=C(Nc1ccc2c(=O)n(Cc3ccc(Cl)c(Cl)c3)cnc2c1)OCc1ccccc1` [LII, N-{3-[(3,4-dichlorophenyl)methyl]-4-oxo(3-hydroquinazolin-7-yl)}(phenylmethoxy)carboxamide], inhibition was half-maximal at 50 nM (IC50).

For the compound `O=C(COc1ccccc1)Nc1ccc2c(=O)n(Cc3ccc(Cl)c(Cl)c3)cnc2c1` [LIII, N-{3-[(3,4-dichlorophenyl)methyl]-4-oxo(3-hydroquinazolin-7-yl)}-2-phenoxyacetamide], the midpoint of inhibition, the IC50, lay at 1690 nM. Compared with the last compound, the IC50 is about 34-fold higher. `O=C(CSc1ccncc1)Nc1ccc2ncn(Cc3ccc(Cl)c(Cl)c3)c(=O)c2c1` [LIV, N-{3-[(3,4-dichlorophenyl)methyl]-4-oxo(3-hydroquinazolin-6-yl)}-2-(4-pyridylthio)acetamide] displayed an IC50 of 2560 nM. Against the preceding compound, the IC50 is about 1.5-fold higher. The figure for `O=C(Nc1ccc2c(=O)n(Cc3cccc(Cl)c3)cnc2c1)OCc1cccnc1` [LIX, N-{3-[(3-chlorophenyl)methyl]-4-oxo(3-hydroquinazolin-7-yl)}(3-pyridylmethoxy)carboxamide] is 280 nM; for `O=C(CSc1ncccn1)Nc1ccc2ncn(Cc3ccc(Cl)c(Cl)c3)c(=O)c2c1` [LV, N-{3-[(3,4-dichlorophenyl)methyl]-4-oxo(3-hydroquinazolin-6-yl)}-2-pyrimidin-2-ylthioacetamide] it is 5420 nM. For `O=C(CSc1ccc(Cl)cc1)Nc1ccc2ncn(Cc3ccc(Cl)c(Cl)c3)c(=O)c2c1` [LVI, N-{3-[(3,4-dichlorophenyl)methyl]-4-oxo(3-hydroquinazolin-6-yl)}-2-(4-chlorophenylthio)acetamide], half-maximal inhibition (IC50) was put at 2810 nM. The figure for `O=C(Nc1ccc2ncn(Cc3ccc(Cl)cc3)c(=O)c2c1)c1ccc(Cn2ccnc2)o1` [LVII, N-{3-[(4-chlorophenyl)methyl]-4-oxo(3-hydroquinazolin-6-yl)}[5-(imidazolylmethyl)(2-furyl)]carboxamide] is 12000 nM; for `O=C(Nc1ccc2c(=O)n(Cc3cccc(Cl)c3)cnc2c1)OCc1ccccc1` [LVIII, N-{3-[(3-chlorophenyl)methyl]-4-oxo(3-hydroquinazolin-7-yl)}(phenylmethoxy)carboxamide] it is 250 nM; for `O=C(CSCc1ccccc1)Nc1ccc2ncn(Cc3ccc(Cl)c(Cl)c3)c(=O)c2c1` [LX, N-{3-[(3,4-dichlorophenyl)methyl]-4-oxo(3-hydroquinazolin-6-yl)}-2-(phenylmethylthio)acetamide] it is 6600 nM. In turn, `COc1ccccc1COC(=O)Nc1ccc2c(=O)n(Cc3ccc(Cl)c(Cl)c3)cnc2c1` [LXI, N-{3-[(3,4-dichlorophenyl)methyl]-4-oxo(3-hydroquinazolin-7-yl)}[(2-methoxyphenyl)methoxy]carboxamide] gave an IC50 of 700 nM. The figure for `O=C(CO)Nc1ccc2ncn(Cc3ccc(Cl)c(Cl)c3)c(=O)c2c1` [LXII, N-{3-[(3,4-dichlorophenyl)methyl]-4-oxo(3-hydroquinazolin-6-yl)}-2-hydroxyacetamide] is 230 nM; for `O=C(Nc1ccc2ncn(Cc3ccc(Cl)c(Cl)c3)c(=O)c2c1)OCc1ccco1` [LXIII, N-{3-[(3,4-dichlorophenyl)methyl]-4-oxo(3-hydroquinazolin-6-yl)}(2-furylmethoxy)carboxamide] it is 440 nM; for `CC(=O)OCC(=O)Nc1ccc2c(=O)n(Cc3ccc(Cl)c(Cl)c3)cnc2c1` [LXIV, (N-{3-[(3,4-dichlorophenyl)methyl]-4-oxo-3-hydroquinazolin-7-yl}carbamoyl)methyl acetate] it is 180 nM. The figure for `O=C(Nc1ccc2c(=O)n(Cc3cccc(F)c3)cnc2c1)OCc1ccccc1` [LXIX, N-{3-[(3-fluorophenyl)methyl]-4-oxo(3-hydroquinazolin-7-yl)}(phenylmethoxy)carboxamide] is 840 nM; for `CC(=O)OCC(=O)Nc1ccc2c(=O)n(Cc3cccc(Cl)c3)cnc2c1` [LXV, (N-{3-[(3-chlorophenyl)methyl]-4-oxo-3-hydroquinazolin-7-yl}carbamoyl)methyl acetate] it is 27100 nM. For the compound `CC(=O)OCC(=O)Nc1ccc2c(=O)n(Cc3ccc(Cl)cc3)cnc2c1` [LXVI, (N-{3-[(4-chlorophenyl)methyl]-4-oxo-3-hydroquinazolin-7-yl}carbamoyl)methyl acetate], the IC50 turned out to be 16400 nM.

Compound `COCCOC(=O)Nc1ccc2c(=O)n(Cc3ccc(Cl)c(Cl)c3)cnc2c1` [LXVII, N-{3-[(3,4-dichlorophenyl)methyl]-4-oxo(3-hydroquinazolin-7-yl)}(2-methoxyethoxy)carboxamide] returned an IC50 of 880 nM.

As to `O=C(CO)Nc1ccc2c(=O)n(Cc3cccc(Cl)c3)cnc2c1` [LXVIII, N-{3-[(3-chlorophenyl)methyl]-4-oxo(3-hydroquinazolin-7-yl)}-2-hydroxyacetamide], the concentration for half-maximal inhibition (IC50) worked out at 2690 nM.

As usually defined, the IC50 is the concentration that inhibits the measured activity by half. A lower IC50 goes with higher potency.

For the origin of these results see patent publication US20090105283A1, “3-HYDROQUINAZOLIN-4-ONE DERIVATIVES FOR USE AS STEAROYL CoA DESATURASE INHIBITORS” (priority 2007, published 2009).
